From patent US20180318275A1, “COMBINATION THERAPY USING PI3K INHIBITOR AND MDM2 INHIBITOR” (Novartis AG, priority 2015, published 2018)

Tests used:
Type in all cases: cell-based
HCT-116 = test: Cell proliferation (cell count by microscopy), Example 3; conditions: Homo sapiens; HCT-116, single agent, 72 h, cell count relative to DMSO
Procedure: (§1) COMPOUNDS A, B and C were dissolved in 100% DMSO (Sigma, Catalog number D2650) at concentrations of 20 mM and stored at −20° C. until use. Compounds were arrayed in drug master plates (Greiner, Catalog number 788876) and serially diluted 3-fold (7 steps) at 2000× concentration.
(§2) To test the effect of the combination of COMPOUND A, COMPOUND B, and COMPOUND C on cell proliferation cells were plated in black 384-well microplates with clear bottom (Matrix/Thermo Scientific, Catalog number 4332) in 50 μL media per well at cell densities between 500 and 1250 cells/well (Table 1 above) and allowed to incubate at 37 degrees, 5% CO2 for 24 h. After 24 h one 384-well plate per cell line was prepared for cell counting by microscopy (see below) without receiving treatment (=‘baseline’). The other cell plates were treated by transferring 25 nL of the 2000× compound from drug master plates using an ATS acoustic liquid dispenser (ECD Biosystems) and resulting in a final 1× concentration. COMPOUND A was used over a final concentration range of 13 nM-10 μM, COMPOUND B was used over a final concentration range of 13 nM-10 μM, and COMPOUND C was used over a final concentration range of 13 nM-10 μM (7 1:3 dilution steps). In order to assess the effect of the triple combination all individual COMPOUNDS (A, B, C), all three pair wise combinations (A+B, A+C, B+C), and the triple combination (A+B+C) were tested in the same experiment. Pair wise combinations and the triple combination were tested at a fixed ratio of 1:1 (for drug pairs) and 1:1:1 (for the drug triple) at each dilution resulting in 7 combination conditions per treatment. […] After compound addition 50 nL of 2 mM CellEvent Caspase-3/7 Green Detection Reagent (ThermoFisher, Catalog number C10423) were added to one of the three replicates using the HP D300 Digital Dispenser (Tecan). Caspase 3/7 induction was measured as a proxy for apoptosis induced by the treatments. Cells were treated for 72 h to 96 h depending on their doubling time (Table 1), and Caspase 3/7 activation was measured every 24 h by microscopy using an InCell Analyzer 2000 (GE Healthcare) equipped with a 4× objective and FITC excitation/emission filters. At the end of the treatment cells were prepared for cell counting by microscopy. Cells were fixed and permeabilised for 45 minutes in 4% PFA (Electron Microscopy Sciences, Catalog number 15714), 0.12% TX-100 (Electron Microscopy Sciences, Catalog number 22140) in PBS (Boston Bioproducts, Catalog number BM-220). After washing cells three times with PBS their DNA was stained for 30 minutes with Hoechst 33342 (ThermoFisher, Catalog number H3570) at a final concentration of 4 μg/mL. Cells were washed three times with PBS and then plates were heat-sealed using a PlateLoc (Agilent Technologies) with aluminum seals (Agilent Technologies, Catalog number 06644-001) and stored at 4° C. until imaging. All cells per well/treatment were captured in a single image by fluorescence microscopy using an InCell Analyzer 2000 (GE Healthcare) equipped with a 4× objective and DAPI excitation/emission filters.
(§3) Images were analyzed after adapting previously described methods (Horn, Sandmann et al. 2011, Nat. Methods 8(4): 341-346) and using the Bioconductor package EBImage in R (Pau, Fuchs et al. 2010, Bioinformatics 26(7):979-981). Objects in both channels, DAPI (for Hoechst/DNA) and FITC (for Caspase 3/7), were segmented separately by adaptive thresholding and counted. A threshold for Caspase 3/7 positive objects was defined manually per cell line after comparing negative controls (DMSO) and positive controls (Staurosporine). By analyzing 17 additional object/nuclei features in the DNA channel (shape and intensity features) debris/fragmented nuclei were identified. To this end per cell line the distributions of the additional features between positive controls (Staurosporine) and negative controls (DMSO) were compared manually. […]

LS-180 = test: as above; conditions: Homo sapiens, LS180; LS-160 (so in the source), single agent, 72 h, cell count relative to DMSO
Procedure: as §1, §2, §3

GP2d = test: as above; conditions: single agent, 72 h, cell count relative to DMSO, unit (micromolar, top dose 10 μM)
Procedure: as §1, §2, §3

RKO = test: as above; conditions: Homo sapiens, single agent, 72 h, cell count relative to DMSO
Procedure: as §1, §2, §3

LoVo = test: as above; conditions: Homo sapiens, single agent, 96 h, cell count relative to DMSO
Procedure: as §1, §2, §3

[1] = test system: 5 TP53 wild type colorectal cancer cell lines; test: Cell proliferation over the cell line panel, Example 3; conditions: Example 3, panel of 5 lines, 13 nM-10 μM
Procedure: To test the effect of the combination of COMPOUND A, COMPOUND B, and COMPOUND C on cell proliferation cells were plated in black 384-well microplates with clear bottom (Matrix/Thermo Scientific, Catalog number 4332) in 50 μL media per well at cell densities between 500 and 1250 cells/well (Table 1 above) and allowed to incubate at 37 degrees, 5% CO2 for 24 h. After 24 h one 384-well plate per cell line was prepared for cell counting by microscopy (see below) without receiving treatment (=‘baseline’). The other cell plates were treated by transferring 25 nL of the 2000× compound from drug master plates using an ATS acoustic liquid dispenser (ECD Biosystems) and resulting in a final 1× concentration. COMPOUND A was used over a final concentration range of 13 nM-10 μM, COMPOUND B was used over a final concentration range of 13 nM-10 μM, and COMPOUND C was used over a final concentration range of 13 nM-10 μM (7 1:3 dilution steps). In order to assess the effect of the triple combination all individual COMPOUNDS (A, B, C), all three pair wise combinations (A+B, A+C, B+C), and the triple combination (A+B+C) were tested in the same experiment. […] Caspase 3/7 induction was measured as a proxy for apoptosis induced by the treatments. Cells were treated for 72 h to 96 h depending on their doubling time (Table 1), and Caspase 3/7 activation was measured every 24 h by microscopy using an InCell Analyzer 2000 (GE Healthcare) equipped with a 4× objective and FITC excitation/emission filters. […] All cells per well/treatment were captured in a single image by fluorescence microscopy using an InCell Analyzer 2000 (GE Healthcare) equipped with a 4× objective and DAPI excitation/emission filters.
Images were analyzed after adapting previously described methods (Horn, Sandmann et al. 2011, Nat. Methods 8(4): 341-346) and using the Bioconductor package EBImage in R (Pau, Fuchs et al. 2010, Bioinformatics 26(7):979-981). Objects in both channels, DAPI (for Hoechst/DNA) and FITC (for Caspase 3/7), were segmented separately by adaptive thresholding and counted. […]

Work on `CC1(C)CCC(c2ccc(Cl)cc2)=C(CN2CCN(c3ccc(C(=O)NS(=O)(=O)c4ccc(N[C@H](CCN5CCOCC5)CSc5ccccc5)c(S(=O)(=O)C(F)(F)F)c4)cc3)CC2)C1` [COMPOUND C, 4-[4-[[2-(4-Chlorophenyl)-5,5-dimethyl-1-cyclohexen-1-yl]methyl]-1-piperazinyl]-N-[[4-[[(1R)-3-(4-morpholinyl)-1-[(phenylthio)methyl]propyl]amino]-3-[(trifluoromethyl)sulfonyl]phenyl]sulfonyl]benzamide, reference compound] yielded an IC50 (HCT-116) of over 10 µM, an IC50 (LS-180) of over 10 µM and an IC50 (GP2d) of over 10 µM. The IC50 (RKO) was over 10 µM, the IC50 (LoVo) was over 10 µM and the “Single agent growth inhibition, in words” value [1] was “no single agent efficacy”.
